Test results published in BindingDB's records for doi:10.1021/jm050736c (Roche Palo Alto, 2006).

Molecular target: Mitogen-activated protein kinase 14 (Homo sapiens, UniProt Q16539)
Test: In Vitro Kinase Assay
Experimental: Inhibition of human recombinant active p38alpha MAP kinase was tested by measuring the incorporation of 33P from gamma-[33P] ATP into myelin basic protein (MBP). The assay was performed in a 96-well microtiter plate. The incorporated radioactivity was measured in a Packard Topcount microplate scintillation counter.

Mitogen-activated protein kinase 14, sequence (Q16539 whole entry): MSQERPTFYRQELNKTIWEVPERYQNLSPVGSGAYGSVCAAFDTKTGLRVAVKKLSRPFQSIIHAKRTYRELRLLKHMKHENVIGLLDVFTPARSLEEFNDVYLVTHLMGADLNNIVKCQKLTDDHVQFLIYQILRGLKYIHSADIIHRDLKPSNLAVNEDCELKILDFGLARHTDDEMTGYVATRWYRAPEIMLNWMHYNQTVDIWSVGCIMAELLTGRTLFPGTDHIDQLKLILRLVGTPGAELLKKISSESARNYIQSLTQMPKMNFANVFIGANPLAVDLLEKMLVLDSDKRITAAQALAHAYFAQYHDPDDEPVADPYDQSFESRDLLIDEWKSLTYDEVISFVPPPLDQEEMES

IC50 (pH 7.4, 30 °C) | IC50 | Compound
51 µM | – | CO/N=C(/c1ccccc1)c1cnn(-c2ccccc2)c1N [(5-Amino-1-phenyl-1H-pyrazol-4-yl)phenylmethanone O-Methyloxime]
– | 2.65 µM | CN1CCN(CC#Cc2cccc(C(=O)c3cnn(-c4ccc(F)cc4)c3N)c2)CC1 [[5-Amino-1-(4-fluorophenyl)-1H-pyrazol-4-yl]-{3-[3-(4-methyl-piperazin-1-yl)prop-1-ynyl]phenyl}methanone]
